Data from patent publication US12233419B2, “Devices, systems, and methods for single cell bacteria analysis” (priority 2018, dated 2025).
{TAMRA} = 6-carboxytetramethylrhodamine (NHS ester) fluorophore; {FAM} = 6-carboxyfluorescein (6-FAM) fluorophore; {IBFQ} = Iowa Black FQ dark quencher; {IBRQ} = Iowa Black RQ dark quencher

Experiments:
[1] = system: E. coli (EC137); test: Single cell AST in adaptable microfluidic device; assay type: cell-based; settings: for antibiotic response in polymicrobial sample: ampicillin 8 μg/mL, mixed with S. epidermidis or EC136
Excerpt: (§1) Taking advantage of microfluidic confinement, single cell AST can be performed phenotypically in the presence of antibiotics in the channel. Resistant strains can grow in the presence of the antibiotic while the antibiotic would inhibit the growth of susceptible strains (FIG. 1C). As the cross-section of the channels is compatible with the size of the pathogen, the bacterial growth is confined along the microchannel. The change in length of the bacteria in the channel over time is used to quantitatively measure the growth of the bacteria.
(§2) In embodiments, bacterial trapping channels of this disclosure are also capable of single cell AST by monitoring the phenotypic growth of the trapped bacteria in the channel. In control groups without antibiotics, the bacteria grew exponentially along the microchannels (FIG. 2B, E, H). […] Growth was measured by an increase in the length of the bacteria occupying the microchannel. The length was normalized according to the initial length for estimating the growth rate, to account for variation of the initial length. Comparison of the growth rate between the control group and the antibiotic group determined the susceptibility of the bacteria. […] Unless otherwise specified, this definition is applied throughout Part I of this disclosure.
(§3) E. coli, S. epidermidis, and M. bacteremicum were cultured in Mueller Hinton broth, Nutrient broth, and ATCC medium 1395, respectively. The bacteria were cultured to an optical density at 600 nm (OD600) around 0.2 (measured with Nanodrop 2000, Thermo Scientific) and diluted to 5×10^5 cfu/mL following the CLSI guideline. […] The concentration of oxacillin for S. epidermidis was 4 μg/mL. A 20 μl sample was loaded into the inlet of the microchannel. Culture medium was applied to immerse the whole device. The device was then loaded on a microscope (Leica DMI4000B) thermal stage for real-time monitoring (SensiCam QE, PCO) of the bacterial growth. The length of the bacteria occupying the microchannel was measured in ImageJ (imagej.nih.gov/ij/). To model the polymicrobial infection with different species, E. coli (EC137) and S. epidermidis were cultured to OD600 around 0.2, mixed at ratio of 1:1, and diluted to a final concentration of 1×10^6 cfu/mL with and without ampicillin (8 μg/mL). To mimic the polymicrobial infection with different strains, E. coli (EC137 and EC136) were mixed at a ratio of 10:1 and diluted to a final concentration of 5×10^6 cfu/mL with and without ampicillin. In this embodiment, the antibiotic resistance was determined as 50% reduction in the growth rate (or two-fold difference in growth rate) in the antibiotic group based on the distribution of the growth rate of single cells. In particular, we define the threshold value based on the standard derivation of single cell growth and t-statistics (two-tailed, unpaired). In our calibration tests, the standard deviations of the growth rate were below 25% of the mean (in the worst case scenario). In the calculation, the degree of freedom was 8, since at least 5 bacteria were used in each group. A 50% reduction in growth rate is equivalent to a p-value of approximately 0.022.

[2] = system: S. epidermidis (ATCC 12228); test: Single cell AST in adaptable microfluidic device; assay type: cell-based; settings: for antibiotic response in polymicrobial sample: ampicillin 8 μg/mL, mixed with E. coli EC137 1:1
Excerpt: as §1, §2, §3

[3] = system: E. coli (EC136); test: Single cell AST in adaptable microfluidic device; assay type: cell-based; settings: ampicillin; EC137 and EC136 mixed 10:1
Method: We further evaluated the capability of the microfluidic system for identifying samples with multiple strains of the same species, which is challenging for genotypic diagnosis. Two strains of E. coli (EC137 and EC136 at a 10:1 ratio) with different antibiotic resistance profiles were tested. EC137 is susceptible to ampicillin while EC136 is resistant to ampicillin. Both strains were trapped in the microchannels at 180 kPa pressure with no spatial separation in the microchannel (FIG. 3F). […] In the antibiotic group, EC136 grew exponentially with ampicillin in the medium, whereas EC137 was lysed by ampicillin. FIG. 3J illustrates the growth curves of EC136 and EC137 in the same test.
E. coli, S. epidermidis, and M. bacteremicum were cultured in Mueller Hinton broth, Nutrient broth, and ATCC medium 1395, respectively. The bacteria were cultured to an optical density at 600 nm (OD600) around 0.2 (measured with Nanodrop 2000, Thermo Scientific) and diluted to 5×10^5 cfu/mL following the CLSI guideline. […] The concentration of oxacillin for S. epidermidis was 4 μg/mL. […] The length of the bacteria occupying the microchannel was measured in ImageJ (imagej.nih.gov/ij/). […] In this embodiment, the antibiotic resistance was determined as 50% reduction in the growth rate (or two-fold difference in growth rate) in the antibiotic group based on the distribution of the growth rate of single cells. […]

[4] = system: M. bacteremicum (ATCC 25791); test: Single cell AST in adaptable microfluidic device; assay type: cell-based; settings: ciprofloxacin 2 μg/mL; growth/non-growth defined by 50% reduction in growth rate
Excerpt: as §1, §2, §3

[5] = system: E. coli EC132; test: NAME pathogen identification with microfluidic single cell AST; assay type: cell-based; settings: growth in channels with ciprofloxacin
Excerpt: (§4) We integrated pathogen identification and single cell AST by applying a microfluidic confinement technique (FIG. 23A) (18, from which the description of the microfluidic device and technique is incorporated herein by reference). […] In this integrated identification and AST assay, the bacteria were transformed, loaded into the microchannels via capillary flow, and trapped in the channels for phenotypic AST. […] AST was implemented by monitoring the bacterial growth in the channels with and without the presence of antibiotics.
(§5) The bacteria suspension (1 μl) was loaded onto a microscope slide and covered with a cover glass for imaging and counting using a fluorescence microscope (Leica DMI 4000B, objective 40×). The transformation efficiency was estimated by the number of bacteria with an observable fluorescence intensity over the total number of bacteria (bright-field). To conduct AST, the transformed bacteria were loaded onto the microfluidic device by capillary force.

[6] = system: E. coli EC137; test: as above; assay type: cell-based; settings: growth in channels with ciprofloxacin
Excerpt: as §4, §5

[7] = system: EC137; test: Testing bacteria resistance with agar pads; assay type: cell-based, E. coli; settings: with and without ciprofloxacin
Excerpt: FIG. 28. Testing bacteria resistance with agar pads. (A) Schematics of the procedure for creating agar pads for single cell AST. […] Scale bars, 25 μm.

[8] = system: bacterial 16S rRNA of E. coli; test: Intracellular 16S rRNA detection with double-stranded probes delivered by NAME; assay type: cell-based
Excerpt: (§6) As discussed above, the present disclosure provides a microwave electroporation approach for transforming molecular probes into viable bacteria for intracellular sensing and pathogen identification (FIG. 24). Multiwall carbon nanotubes, which couple and localize the microwave energy, can enhance the electric field in a manner similar to a lightning rod for microwave electroporation with a minimal effect on the cell viability^(14, 15). To evaluate the feasibility of multiplex single cell pathogen identification using NAME, two molecular probes targeting the species-specific regions of bacterial 16S rRNA of E. coli (EC probe) and P. aeruginosa (PA probe) were designed and transformed into the bacteria (Tables 4-5). The performance of the double-stranded nucleic acid probe was first calibrated for use in homogeneous sensing (FIG. 25). For multiplex detection, the PA probe was labeled with 6-carboxyfluorescein (6-FAM) and the EC probe was labeled with 6-carboxytetramethylrhodamine (6-TAMRA). Uropathogenic E. coli and P. aeruginosa were transformed with both probes for pathogen identification (FIG. 20D).
(§7) Four double-stranded probes were used in this disclosure (Table 4). Each probe contained two DNA strands. The donor strands were 22-24 nucleotides long and complementary to the target RNA of interest^(27, 28). The fluorophores, 6-FAM (Fluorescein) or 6-TAMRA (NHS Ester), were labeled at the 3′ end of the donor strands. The quencher strands were 11-12 nucleotides in length. The dark quenchers, Iowa Black FQ for 6-FAM or Iowa Black RQ for 6-TAMRA, were labeled at the 5′ end of the quencher strands immediately adjacent to the fluorophores on the donor strands. The probes were synthesized by Integrated DNA Technologies (Coralville, IA). Other reagents were purchased from Sigma Inc. (St. Louis, MO) unless otherwise specified. To conduct the assay, the probes were made by mixing the fluorophore and quencher strands in the buffer solution, which contains 10 mM Tris-EDTA with 100 mM NaCl at a 1:3 molar ratio, at 95° C. for 5 minutes. The mixtures were then allowed to cool down to room temperature slowly. The final concentration of the probes in the transformation test was 1.5×10^3 nM.
(§8) Bacteria were grown in Mueller Hinton Broth. To transform the double-stranded probe into bacteria, 100 μl of bacterial sample was centrifuged at 4500 rpm for 5 minutes and washed twice with phosphate buffer (PBS 1×). The multiwall carbon nanotubes that are functionalized with a carboxyl group (COOH) have a diameter of 30±15 nm and a length from 1 to 5 μm (NanoLab, Inc.). The nanotube solution (30 mg/ml) was filtered with a 1 μm microfilter. The pellet was resuspended into 100 μl filtered nanotube solution and incubated for 10 minutes at room temperature. Then, 10 μl molecular probe was added and incubated at room temperature for 10 minutes. The sample was incubated in ice for 5 minutes and then put into a microwave oven (700 W, 2.45 GHz) for 10 seconds. The microwave treated bacteria was incubated at room temperature for 30 minutes and washed 3 times with PBS (1×) to remove the extra probes and resuspended in PBS for imaging.

[9] = system: bacterial 16S rRNA of P. aeruginosa; test: as above; assay type: cell-based
Excerpt: as §6, §7, §8

Compound: CC1(C)S[C@@H]2[C@H](NC(=O)[C@H](N)c3ccccc3)C(=O)N2[C@H]1C(=O)O [ampicillin]
- antibiotic response in polymicrobial sample [1]: susceptible
- antibiotic response in polymicrobial sample ([1]; listed as Ampicillin): bactericidal effect
- antibiotic response in polymicrobial sample [2]: resistant
- antibiotic response in polymicrobial sample ([2]; listed as Ampicillin): no effect
- antibiotic response in polymicrobial sample [3]: resistant

Compound: O=C(O)c1cn(C2CC2)c2cc(N3CCNCC3)c(F)cc2c1=O [ciprofloxacin]
- antimicrobial susceptibility (growth in microchannel) ([1]; ciprofloxacin 4 μg/mL, growth/non-growth defined by 50% reduction in growth rate): effective
- antimicrobial susceptibility (growth in microchannel) [4]: effective
- antimicrobial susceptibility after NAME [5]: resistant
- antimicrobial susceptibility after NAME [6]: susceptible
- growth in agar pads [7]: inhibited the growth

Compound: Cc1onc(-c2ccccc2)c1C(=O)N[C@@H]1C(=O)N2[C@@H]1SC(C)(C)[C@@H]2C(=O)O [oxacillin]
- antimicrobial susceptibility (growth in microchannel) ([2]; oxacillin 4 μg/mL, growth/non-growth defined by 50% reduction in growth rate): completely inhibited the growth

Compound: EC probe (Red): double-stranded DNA probe for E. coli 16S rRNA; donor SEQ ID 3 with 3′ 6-TAMRA, quencher SEQ ID 4 with 5′ Iowa Black RQ (sense GGTATTAACTTTACTCCCTTCCTC; antisense GAGGAAGGGAGT; sense: 3' {TAMRA}, sugars by position and backbone not given here; antisense: 5' {IBRQ}, sugars by position and backbone not given here)
- single cell pathogen identification of clinical isolates ([8]; isolates from clinical blood and urine samples): specifically identified
- fluorescence signal from the probe in the bacteria ([8]; samples with E. coli only, both probes transformed): clearly observed
- fluorescence signal from the probe in the bacteria (non-target probe) ([9]; P. aeruginosa samples, EC probe): not

Compound: PA probe: double-stranded DNA probe for P. aeruginosa 16S rRNA; donor SEQ ID 6 with 3′ 6-FAM, quencher SEQ ID 7 (sense GCTGAACCACCTACGCGCGCTTT; antisense AAAGCGCGCGTA; sense: 3' {FAM}, sugars by position and backbone not given here; antisense: 5' {IBFQ}, sugars by position and backbone not given here)
- fluorescence signal from the probe in the bacteria (non-target probe) ([8]; samples with E. coli only, PA probe): not observable
- fluorescence signal from the probe in the bacteria ([9]; P. aeruginosa samples, both probes transformed): high fluorescence signal
- single cell pathogen identification of clinical isolates ([9]; isolates from clinical urine samples): specifically identified
